Experimental data reported in ChEMBL document CHEMBL1671861, “Preclinical evaluation of 1H-benzylindole derivatives as novel human immunodeficiency virus integrase strand transfer inhibitors” (Antimicrob Agents Chemother, 2008).
pEC50, pIC50: −log10 of the molar value. Active and inactive are the calls of the source. No cut-off for these calls is given here.

What was measured:
[1] = Selectivity index, ratio of CC50 for human MT4 cells to EC50 for Human immunodeficiency virus 1 3B; format: toxicity, cell-based; conditions: read-out: Ratio CC50/EC50
[2] = tested on: Human immunodeficiency virus 1; test: Antiviral activity against Human immunodeficiency virus 1 3B infected in human MT4 cells assessed as inhibition of viral replication; format: functional, organism-based
[3] = tested on: Human immunodeficiency virus 1; test: Antiretroviral activity against Human immunodeficiency virus 1 NL4.3 infected in human MT4 cells assessed as inhibition of virus-induced cytopathic effect by MTT assay; format: functional, organism-based; conditions: Human immunodeficiency virus 1, NL4.3, MT4
[4] = tested on: Human immunodeficiency virus 1; test: Antiretroviral activity against Human immunodeficiency virus 1 3B infected in human MT4 cells assessed as inhibition of virus-induced cytopathic effect by MTT assay; format: functional, organism-based
[5] = tested on: Human immunodeficiency virus 1; test: Antiviral activity against Reverse transcriptase inhibitor-resistant Human immunodeficiency virus 1 infected in human MT4 cells assessed as inhibition of virus-induced cytopathic effect by MTT assay; format: functional, organism-based; conditions: Human immunodeficiency virus 1, MT4
[6] = tested on: Simian immunodeficiency virus; test: Antiretroviral activity against Simian immunodeficiency virus MAC 251 infected in human MT4 cells assessed as inhibition of virus-induced cytopathic effect by MTT assay; format: functional, organism-based; conditions: MAC 251, MT4
[7] = tested on: Human immunodeficiency virus 1; test: Antiviral activity against Protease inhibitor-resistant Human immunodeficiency virus 1 infected in human MT4 cells assessed as inhibition of virus-induced cytopathic effect by MTT assay; format: functional, organism-based; conditions: Human immunodeficiency virus 1, MT4
[8] = tested on: Human immunodeficiency virus 2; test: Antiretroviral activity against Human immunodeficiency virus 2 EHO infected in human MT4 cells assessed as inhibition of virus-induced cytopathic effect by MTT assay; format: functional, organism-based
[9] = tested on: Human immunodeficiency virus 2; test: Antiretroviral activity against Human immunodeficiency virus 2 ROD infected in human MT4 cells assessed as inhibition of virus-induced cytopathic effect by MTT assay; format: functional, organism-based; conditions: Human immunodeficiency virus 2, ISOLATE ROD
[10] = tested on: Human immunodeficiency virus 1; test: Antiviral activity against non nucleoside reverse transcriptase inhibitor-resistant Human immunodeficiency virus 1 infected in human MT4 cells assessed as inhibition of virus-induced cytopathic effect by MTT assay; format: functional, organism-based; conditions: Human immunodeficiency virus 1, MT4
[11] = Cytotoxicity against human MT4 cells by MTT assay; format: cell-based
[12] = target: T1, Human immunodeficiency virus type 1 integrase (Human immunodeficiency virus 1, UniProt Q7ZJM1); test: Inhibition of Human immunodeficiency virus 1 integrase strand transfer activity
[13] = target: T1, Human immunodeficiency virus type 1 integrase; test: Inhibition of Human immunodeficiency virus 1 integrase
[14] = Intrinsic clearance in human liver microsome; format: ADME; conditions: liver microsomes
[15] = tested on: Human immunodeficiency virus 1; test: Antiviral activity against R5 tropic Human immunodeficiency virus 1 BAL infected in PMBC; format: functional, organism-based
[16] = tested on: Human immunodeficiency virus 1; test: Antiviral activity against Human immunodeficiency virus 1 infected in 293T cells assessed as inhibition of early cDNA synthesis by Lentiviral vector transduction assay; format: functional, organism-based
[17] = tested on: Human immunodeficiency virus 1; test: Antiviral activity against Human immunodeficiency virus 1 during lentiviral transduction process assessed as inhibition of early cDNA synthesis by Lentiviral vector transduction assay; format: functional, organism-based
[18] = tested on: Human immunodeficiency virus 1; test: Antiviral activity against Human immunodeficiency virus 1 infected in 293T cells assessed as increase in amount of 2-LTR circles by Q-PCR in presence of 12.2 uM CHI/1043; format: functional, organism-based
[19] = tested on: Human immunodeficiency virus 1; test: Antiviral activity against Human immunodeficiency virus 1 infected in 293T cells assessed as integrated proximal DNA by Q-PCR; format: functional, organism-based
[20] = tested on: Human immunodeficiency virus 1; test: Ratio of EC50 for Human immunodeficiency virus 1 3B after 70 passages to EC50 for wild-type Human immunodeficiency virus 1 3B; format: functional
[21] = Apparent permeability from apical to basolateral side of human Caco2 cells; format: ADME, cell-based; conditions: Caco-2
[22] = tested on: Human immunodeficiency virus 1; test: Antiviral activity against X4 tropic Human immunodeficiency virus 1 3B infected in PMBC; format: functional, organism-based

T1 sequence (Q7ZJM1 whole entry): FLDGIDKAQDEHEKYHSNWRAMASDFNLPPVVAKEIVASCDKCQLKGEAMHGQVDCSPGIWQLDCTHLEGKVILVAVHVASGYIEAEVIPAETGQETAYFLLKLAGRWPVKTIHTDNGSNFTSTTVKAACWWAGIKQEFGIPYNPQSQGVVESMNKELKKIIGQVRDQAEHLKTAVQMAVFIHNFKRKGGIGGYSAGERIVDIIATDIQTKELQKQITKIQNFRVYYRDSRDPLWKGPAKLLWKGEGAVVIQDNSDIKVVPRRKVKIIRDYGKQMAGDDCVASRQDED

## CCOC(=O)/C(O)=C/C(=O)c1cn(Cc2ccc(F)cc2)c2c(OC)cccc12
[1]
  selectivity ratio: 1

## COc1cc2c(cc1Cc1cccc(Cl)c1F)c(=O)c(C(=O)O)cn2[C@H](CO)C(C)C
[2]
  pEC50: 9.08

## Cc1cn([C@H]2C[C@H](N=[N+]=[N-])[C@@H](CO)O2)c(=O)[nH]c1=O [ZIDOVUDINE]
[3]
  pEC50: 7.68
[4]
  pEC50: 7.57
[5]
  pEC50: 6.70
[6]
  pEC50: 7.96
[7]
  pEC50: 7.59
[8]
  pEC50: 7.25
[9]
  pEC50: 7.17
[10]
  pEC50: 7.70

## O=C(O)C(=O)CC(=O)c1cc(OCc2ccccc2)cc(OCc2ccccc2)c1
[3]
  pEC50: 4.61
[11]
  CC50: 62000 nM
[4]
  pEC50: 4.91
[5]
  pEC50: 5.14
[2]
  pEC50: 4.91
[6]
  pEC50: 4.65
[7]
  pEC50: 5.13
[1]
  selectivity ratio: 5
[9]
  pEC50: 4.21
[10]
  pEC50: 4.71

## COc1ccc2c(c1)c(C(=O)/C=C(\O)C(=O)O)cn2Cc1ccc(F)cc1
[1]
  selectivity ratio: 12

## O=C1Nc2ccc(Cl)cc2[C@@](C#CC2CC2)(C(F)(F)F)O1 [EFAVIRENZ]
[6]
  pEC50: < 4.50
[8]
  pEC50: < 4.50
[9]
  pEC50: < 4.50

## Cc1c(O)cccc1C(=O)N[C@@H](CSc1ccccc1)[C@H](O)CN1C[C@H]2CCCC[C@H]2C[C@H]1C(=O)NC(C)(C)C
[3]
  pEC50: 7.64
[4]
  pEC50: 7.55
[5]
  pEC50: 7.54
[6]
  pEC50: 7.30
[7]
  pEC50: 6.77
[8]
  pEC50: 7.31
[9]
  pEC50: 7.30
[10]
  pEC50: 7.46

## CCOC(=O)/C(O)=C/C(=O)c1cn(Cc2ccc(F)cc2)c2c(OC)ccc(OC)c12
[1]
  selectivity ratio: 20

## CCOC(=O)/C(O)=C/C(=O)c1cn(Cc2ccc(F)cc2)c2cccc(OC)c12
[1]
  selectivity ratio: 24

## CCOC(=O)/C(O)=C/C(=O)c1cn(Cc2ccc(F)cc2)c2cc(OC)ccc12
[1]
  selectivity ratio: < 1

## COc1ccc2c(C(=O)/C=C(\O)C(=O)O)cn(Cc3ccc(F)cc3)c2c1
[1]
  selectivity ratio: 8

## COc1ccc(OC)c2c1c(C(=O)/C=C(\O)C(=O)O)cn2Cc1ccc(F)cc1
[1]
  selectivity ratio: 100

## Cc1nnc(C(=O)NC(C)(C)c2nc(C(=O)NCc3ccc(F)cc3)c(O)c(=O)n2C)o1
[2]
  pEC50: 8.85

## COc1cccc2c(C(=O)/C=C(\O)C(=O)O)cn(Cc3ccc(F)cc3)c12
[1]
  selectivity ratio: 12

## O=C(NCc1ccc(F)cc1)c1nc(N2CCCCS2(=O)=O)c2cccnc2c1O
[11]
  CC50: 2250 nM
[12]
  pIC50: 8.15
[2]
  pEC50: 8.31
[1]
  selectivity ratio: 460
[13]
  pIC50: 8.64

## O=C(O)/C(O)=C/C(=O)c1cn(Cc2ccccc2)c2ccccc12
[11]
  CC50: 64100 nM
[12]
  pIC50: 5.63
[2]
  pEC50: 5.08
[1]
  selectivity ratio: 8
[13]
  pIC50: 6.07

## CCOC(=O)/C(O)=C/C(=O)c1cn(Cc2ccc(F)cc2)c2ccc(OC)cc12
[1]
  selectivity ratio: 11

## COc1cccc2c1c(C(=O)/C=C(\O)C(=O)O)cn2Cc1ccc(F)cc1
[14]
  microsomal CLint: 11 µL/min/mg
[3]
  pEC50: 6.14
[15]
  pEC50: 6.52
[16]
  inhibition: Active
[4]
  pEC50: 6.22
[17]
  inhibition: inactive
[18]
  inhibition: inactive
[19]
  inhibition: inactive
[20]
  Ratio EC50: >40
[21]
  Papp A→B: 5.5 ×10⁻⁶ cm/s
[5]
  pEC50: 6.07
[22]
  pEC50: 6.52
[2]
  pEC50: 6.22
[6]
  pEC50: 5.32
[7]
  pEC50: 6.17
[1]
  selectivity ratio: 69.8
[8]
  pEC50: 5.75
[9]
  pEC50: 5.68
[13]
  pIC50: 6.96
[10]
  pEC50: 6.08
